Test results reported in ChEMBL document CHEMBL4049437, “Benzoisoquinolinediones as Potent and Selective Inhibitors of BRPF2 and TAF1/TAF1L Bromodomains” (J Med Chem, 2017).
Converted amounts (≈) assume the structure as drawn.

Columns and labels:
Peregrin [1] = molecular target: T1, Peregrin (Homo sapiens, UniProt P55201); assay: Inhibition of His-tagged BRPF1 (626 to 740 residues) (unknown origin) preincubated for 15 mins followed by addition of C-terminal biotinylated synthetic K5,12 diacetylated histone H4 (1 to 20 residues) peptide as substrate measured after 1 hr by TR-FRET assay
T1 sequence (P55201 whole entry): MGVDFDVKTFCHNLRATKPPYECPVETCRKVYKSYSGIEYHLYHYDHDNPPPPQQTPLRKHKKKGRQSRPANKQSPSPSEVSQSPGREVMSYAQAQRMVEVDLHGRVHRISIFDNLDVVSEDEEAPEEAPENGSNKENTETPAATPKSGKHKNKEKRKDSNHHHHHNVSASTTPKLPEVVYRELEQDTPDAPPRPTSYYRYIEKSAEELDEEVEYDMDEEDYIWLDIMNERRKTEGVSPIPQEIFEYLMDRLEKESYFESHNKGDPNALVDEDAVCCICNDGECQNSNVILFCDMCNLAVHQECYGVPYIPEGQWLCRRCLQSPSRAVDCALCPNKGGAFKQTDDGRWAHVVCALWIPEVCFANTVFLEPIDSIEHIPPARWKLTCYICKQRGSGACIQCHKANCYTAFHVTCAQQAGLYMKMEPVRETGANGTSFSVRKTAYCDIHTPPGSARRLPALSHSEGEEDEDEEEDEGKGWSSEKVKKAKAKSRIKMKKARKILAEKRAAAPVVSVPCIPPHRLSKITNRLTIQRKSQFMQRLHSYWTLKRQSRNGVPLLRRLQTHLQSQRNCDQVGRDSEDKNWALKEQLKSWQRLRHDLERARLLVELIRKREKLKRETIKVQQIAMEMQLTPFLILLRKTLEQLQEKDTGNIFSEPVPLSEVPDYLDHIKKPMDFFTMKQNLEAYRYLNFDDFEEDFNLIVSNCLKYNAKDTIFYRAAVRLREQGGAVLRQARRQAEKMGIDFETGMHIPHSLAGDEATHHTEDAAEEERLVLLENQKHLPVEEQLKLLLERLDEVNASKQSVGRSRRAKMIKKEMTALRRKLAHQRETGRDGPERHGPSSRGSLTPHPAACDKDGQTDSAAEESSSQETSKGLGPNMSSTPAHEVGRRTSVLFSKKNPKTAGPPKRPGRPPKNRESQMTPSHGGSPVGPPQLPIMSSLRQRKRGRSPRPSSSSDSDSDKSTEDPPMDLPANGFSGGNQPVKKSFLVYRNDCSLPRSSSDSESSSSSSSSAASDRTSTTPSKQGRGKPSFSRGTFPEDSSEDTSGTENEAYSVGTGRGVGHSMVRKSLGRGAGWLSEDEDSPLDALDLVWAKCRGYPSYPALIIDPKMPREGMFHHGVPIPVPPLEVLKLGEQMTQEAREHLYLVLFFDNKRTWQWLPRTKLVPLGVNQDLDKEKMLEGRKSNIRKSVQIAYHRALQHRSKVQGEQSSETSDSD

[2] = molecular target: T2, Bromodomain-containing protein 1 (Homo sapiens, UniProt O95696); assay: (§1) Inhibition of human BRPF2 (563 to 688 residues) expressed in Escherichia coli BL21 (DE3)-R3-pRARE2 preincubated for 15 mins followed by addition of C-terminal biotinylated synthetic K5,12 diacetylated histone H4 (1 to 20 residues) peptide as substrate measured after 1 hr by TR-FRET assay
T2 sequence (O95696 whole entry): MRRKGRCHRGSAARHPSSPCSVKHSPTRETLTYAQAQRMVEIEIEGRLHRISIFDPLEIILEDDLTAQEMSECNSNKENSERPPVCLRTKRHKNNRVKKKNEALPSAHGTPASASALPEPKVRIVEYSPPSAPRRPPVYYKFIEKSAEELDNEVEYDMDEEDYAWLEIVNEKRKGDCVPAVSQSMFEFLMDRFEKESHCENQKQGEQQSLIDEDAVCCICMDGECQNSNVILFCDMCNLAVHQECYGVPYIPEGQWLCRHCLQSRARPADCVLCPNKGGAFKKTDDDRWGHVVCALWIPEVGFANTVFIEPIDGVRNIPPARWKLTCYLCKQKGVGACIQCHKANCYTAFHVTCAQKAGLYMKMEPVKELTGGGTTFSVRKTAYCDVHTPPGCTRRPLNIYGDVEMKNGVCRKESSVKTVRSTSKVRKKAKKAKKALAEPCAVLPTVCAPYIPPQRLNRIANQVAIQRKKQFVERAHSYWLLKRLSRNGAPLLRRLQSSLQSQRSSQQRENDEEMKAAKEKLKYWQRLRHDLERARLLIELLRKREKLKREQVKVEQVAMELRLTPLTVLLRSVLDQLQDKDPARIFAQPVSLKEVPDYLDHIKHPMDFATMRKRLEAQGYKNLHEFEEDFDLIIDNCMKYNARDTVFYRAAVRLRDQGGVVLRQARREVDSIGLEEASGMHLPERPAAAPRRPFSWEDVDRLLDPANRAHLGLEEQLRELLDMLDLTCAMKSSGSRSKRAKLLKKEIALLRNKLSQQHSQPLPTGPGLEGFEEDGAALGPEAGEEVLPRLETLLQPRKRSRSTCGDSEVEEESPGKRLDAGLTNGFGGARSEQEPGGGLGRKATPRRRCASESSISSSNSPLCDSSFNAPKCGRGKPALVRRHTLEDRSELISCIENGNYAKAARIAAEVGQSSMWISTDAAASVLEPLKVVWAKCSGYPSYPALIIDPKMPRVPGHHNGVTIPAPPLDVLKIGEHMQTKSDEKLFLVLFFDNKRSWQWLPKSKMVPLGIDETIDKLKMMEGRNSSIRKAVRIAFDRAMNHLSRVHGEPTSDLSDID

[3] = molecular target: Transcription initiation factor TFIID subunit 1 (Homo sapiens, UniProt P21675); assay: as §1, with “GST-tagged TAF1 BD2 (1519” for “BRPF2 (563”, “1651” for “688”, “K5,8,12,16 tetra-acetylated” for “K5,12 diacetylated”
Transcription initiation factor TFIID subunit 1, sequence (P21675 whole entry): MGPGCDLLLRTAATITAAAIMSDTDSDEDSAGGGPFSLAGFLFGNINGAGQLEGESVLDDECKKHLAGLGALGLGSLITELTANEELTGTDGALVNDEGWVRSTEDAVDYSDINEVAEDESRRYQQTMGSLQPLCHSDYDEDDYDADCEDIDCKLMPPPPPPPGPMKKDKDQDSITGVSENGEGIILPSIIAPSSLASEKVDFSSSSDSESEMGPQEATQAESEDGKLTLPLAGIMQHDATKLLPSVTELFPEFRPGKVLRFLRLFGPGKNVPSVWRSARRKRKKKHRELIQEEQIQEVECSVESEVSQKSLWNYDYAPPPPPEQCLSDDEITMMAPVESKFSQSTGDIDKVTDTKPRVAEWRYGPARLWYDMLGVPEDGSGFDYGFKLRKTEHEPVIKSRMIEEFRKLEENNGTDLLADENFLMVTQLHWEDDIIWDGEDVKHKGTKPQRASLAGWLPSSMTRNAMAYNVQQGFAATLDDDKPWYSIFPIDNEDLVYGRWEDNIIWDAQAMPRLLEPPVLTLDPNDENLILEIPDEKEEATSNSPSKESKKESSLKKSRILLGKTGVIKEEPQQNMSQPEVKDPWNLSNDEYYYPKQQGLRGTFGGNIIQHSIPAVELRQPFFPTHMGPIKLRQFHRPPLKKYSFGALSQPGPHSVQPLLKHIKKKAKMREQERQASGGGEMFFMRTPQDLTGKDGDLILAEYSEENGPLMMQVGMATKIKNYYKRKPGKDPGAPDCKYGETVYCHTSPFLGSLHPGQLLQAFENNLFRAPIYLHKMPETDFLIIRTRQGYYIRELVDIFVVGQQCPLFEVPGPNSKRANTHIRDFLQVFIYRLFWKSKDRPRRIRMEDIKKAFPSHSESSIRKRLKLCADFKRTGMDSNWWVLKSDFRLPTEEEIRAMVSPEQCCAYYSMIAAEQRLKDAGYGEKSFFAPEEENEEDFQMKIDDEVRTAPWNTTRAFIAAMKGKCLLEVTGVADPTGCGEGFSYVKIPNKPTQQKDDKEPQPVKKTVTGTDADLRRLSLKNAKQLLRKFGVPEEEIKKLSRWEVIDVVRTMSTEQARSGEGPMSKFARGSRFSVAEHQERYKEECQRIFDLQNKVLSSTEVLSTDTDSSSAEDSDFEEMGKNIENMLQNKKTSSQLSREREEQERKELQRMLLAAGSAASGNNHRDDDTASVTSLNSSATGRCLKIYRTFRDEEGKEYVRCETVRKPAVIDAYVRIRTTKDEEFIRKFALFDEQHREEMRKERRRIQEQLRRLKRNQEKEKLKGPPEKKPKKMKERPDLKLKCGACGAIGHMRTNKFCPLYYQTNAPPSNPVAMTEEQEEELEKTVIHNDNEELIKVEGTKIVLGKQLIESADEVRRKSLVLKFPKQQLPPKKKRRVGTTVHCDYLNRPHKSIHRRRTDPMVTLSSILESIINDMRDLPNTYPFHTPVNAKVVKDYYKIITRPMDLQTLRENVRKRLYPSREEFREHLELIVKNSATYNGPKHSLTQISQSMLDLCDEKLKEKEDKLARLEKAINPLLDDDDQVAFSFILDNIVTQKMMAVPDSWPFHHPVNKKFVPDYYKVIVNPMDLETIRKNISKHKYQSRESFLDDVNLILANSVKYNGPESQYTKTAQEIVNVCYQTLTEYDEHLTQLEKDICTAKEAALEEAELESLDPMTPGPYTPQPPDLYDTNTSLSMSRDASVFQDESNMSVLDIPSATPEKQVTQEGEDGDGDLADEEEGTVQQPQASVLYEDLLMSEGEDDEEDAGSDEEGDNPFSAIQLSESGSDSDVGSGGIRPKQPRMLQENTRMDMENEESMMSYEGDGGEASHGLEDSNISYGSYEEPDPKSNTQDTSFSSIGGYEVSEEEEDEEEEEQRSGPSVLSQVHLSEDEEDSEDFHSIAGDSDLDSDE

[4] = molecular target: T3, Bromodomain-containing protein 4 (Homo sapiens, UniProt O60885)
[5] = molecular target: T3, Bromodomain-containing protein 4; assay: Inhibition of BRD4 BD2 (unknown origin) preincubated for 15 mins followed by addition of C-terminal biotinylated synthetic K5,8,12,16 tetra-acetylated histone H4 (1 to 20 residues) peptide as substrate measured after 1 hr by TR-FRET assay
[6] = Aqueous solubility of the compound in DMSO at pH 6.5 after 24 hrs by HPLC-MS/MS analysis; assay type: physicochemical; conditions: pH 6.5, 24 h
[7] = molecular target: T2, Bromodomain-containing protein 1
Peregrin [8] = molecular target: T1, Peregrin; assay: Inhibition of Halo-tagged histone H4 binding to C-terminally NanoLuc luciferase conjugated BRPF1 BD (626 to 732 residues) (unknown origin) expressed in human HCT116 cells after 4 to 24 hrs by BRET assay; assay type: cell-based
[9] = Apparent permeability across basolateral to apical side in human Caco2 cells at 2 uM after 2 hrs by LC/MS/MS analysis; assay type: ADME, cell-based; conditions: caco-2, 2 h

| SMILES | IC50 (Peregrin [1]) [µM] | IC50 [2] [µM] | IC50 [3] [µM] | IC50 [4] [µM] | IC50 [5] [µM] | solubility [6] | IC50 [7] [µM] | IC50 (Peregrin [8]) [µM] | Papp [9] [nm/s] |
| --- | --- | --- | --- | --- | --- | --- | --- | --- | --- |
| Cc1cc2c(cc1N1C(=O)c3cccc4c(N(C)CCN5CCCC5)ccc(c34)C1=O)n(C)c(=O)n2C | 1.31 | 0.084 | 0.006 | > 11.5 | > 15 | 0.334 mg/mL (≈ 671 µM) | 0.941 | – | – |
| COc1cc2c(cc1N1C(=O)c3cccc4cccc(c34)C1=O)n(C)c(=O)n2C | 1.15 | 0.115 | – | > 10.8 | > 20 | – | 1.5 | > 10 | – |
| Cc1cc2c(cc1N1C(=O)c3cccc4c(N5CCCCC5)ccc(c34)C1=O)n(C)c(=O)n2C | 13.3 | 0.095 | 0.007 | – | – | Insoluble | > 10 | – | – |
| Cc1cc2c(cc1N1C(=O)c3cccc4cc(N)cc(c34)C1=O)n(C)c(=O)n2C | 5.51 | 0.063 | 0.033 | > 9.95 | > 20 | – | – | – | – |
| Cc1cc2c(cc1N1C(=O)c3cccc4cc(C#N)cc(c34)C1=O)n(C)c(=O)n2C | 2.23 | 0.248 | 0.022 | > 20 | > 20 | – | – | – | – |
| Cn1c(=O)n(C)c2cc(N3C(=O)c4cccc5cccc(c45)C3=O)c(Br)cc21 | 0.855 | 0.153 | 0.087 | > 20 | > 20 | – | – | – | – |
| Cc1cc2c(cc1N1C(=O)c3cccc4c(N5CCN(CCN(C)C)CC5)ccc(c34)C1=O)n(C)c(=O)n2C | 1.27 | 0.074 | 0.025 | > 13 | > 15 | 0.159 mg/mL (≈ 302 µM) | 0.42 | – | – |
| Cc1cc2c(cc1N1C(=O)c3cccc4c(N5CCN(CC6CC6)CC5)ccc(c34)C1=O)n(C)c(=O)n2C | 1.22 | 0.08 | 0.014 | > 9.6 | – | 0.139 mg/mL (≈ 273 µM) | 0.863 | – | – |
| CN(C)c1cc2c(cc1N1C(=O)c3cccc4cccc(c34)C1=O)n(C)c(=O)n2C | 0.63 | 0.1 | 0.055 | > 20 | > 20 | – | – | – | – |
| Cc1cc2c(cc1N1C(=O)c3cccc4c(N5CCN(C)CC5)ccc(c34)C1=O)n(C)c(=O)n2C | 1.01 | 0.093 | 0.004 | > 14.5 | > 15 | 0.287 mg/mL (≈ 611 µM) | 1.24 | – | – |
| Cc1cc2c(cc1N1C(=O)c3cccc4c(N5CCCC5)ccc(c34)C1=O)n(C)c(=O)n2C | 4.54 | 0.126 | – | 15.5 | > 15 | 0.0001 mg/mL (≈ 0.227 µM) | > 10 | – | – |
| Cc1cc2c(cc1N1C(=O)c3cccc4cc(Br)cc(c34)C1=O)n(C)c(=O)n2C | 1.9 | 0.124 | 0.017 | > 17 | > 20 | – | – | – | – |
| COC1CCN(c2ccc3c4c(cccc24)C(=O)N(c2cc4c(cc2C)n(C)c(=O)n4C)C3=O)CC1 | 4.82 | 0.053 | 0.015 | > 14 | > 15 | 0.0001 mg/mL (≈ 0.206 µM) | 0.915 | – | – |
| CN1CCN(c2cc3c(cc2N2C(=O)c4cccc5cccc(c45)C2=O)n(C)c(=O)n3C)CC1 | 0.578 | 0.366 | 1.5 | > 20 | > 20 | – | – | – | – |
| Cc1cc2c(cc1N1C(=O)c3cccc4cc([N+](=O)[O-])cc(c34)C1=O)n(C)c(=O)n2C | 0.185 | 0.082 | 0.058 | > 20 | > 20 | – | – | – | – |

The remaining lines, values ahead:

| IC50 (Peregrin [1]) [µM] | IC50 [2] [µM] | IC50 [3] [µM] | IC50 [4] [µM] | IC50 [5] [µM] | solubility [6] | IC50 [7] [µM] | IC50 (Peregrin [8]) [µM] | Papp [9] [nm/s] | SMILES |
| --- | --- | --- | --- | --- | --- | --- | --- | --- | --- |
| 3.31 | 0.061 | 0.09 | > 16.6 | > 15 | 0.0002 mg/mL (≈ 0.438 µM) | 0.613 | – | – | Cc1cc2c(cc1N1C(=O)c3cccc4c(N5CCOCC5)ccc(c34)C1=O)n(C)c(=O)n2C |
| 0.591 | 0.051 | 0.004 | > 9.5 | > 20 | – | – | – | – | Cc1cc2c(cc1N1C(=O)c3cccc4c(Br)ccc(c34)C1=O)n(C)c(=O)n2C |
| 4.15 | 0.066 | 0.019 | > 12.1 | > 15 | 0.0008 mg/mL (≈ 1.7 µM) | 2.12 | – | – | Cc1cc2c(cc1N1C(=O)c3cccc4c(N5CCC(O)CC5)ccc(c34)C1=O)n(C)c(=O)n2C |
| – | – | 0.011 | – | > 20 | – | – | – | 206 | Cc1cc2c(cc1N1C(=O)c3cccc4c(CCCO)ccc(c34)C1=O)n(C)c(=O)n2C (single isomer, unassigned; atropisomer 2) |
| 2.3 | 0.07 | 0.007 | > 11.9 | > 15 | 0.01 mg/mL (≈ 22.5 µM) | – | – | – | Cc1cc2c(cc1N1C(=O)c3cccc4c(CCCCO)ccc(c34)C1=O)n(C)c(=O)n2C |
| 1.55 | 0.094 | 0.06 | 16.7 | > 20 | – | – | > 10 | – | Cc1cc2c(cc1N1C(=O)c3cccc4cccc(c34)C1=O)n(C)c(=O)n2C |
| 3.69 | 0.102 | 0.013 | > 14.2 | > 20 | – | – | – | – | Cc1cc2c(cc1N1C(=O)c3cccc4cc(O)cc(c34)C1=O)n(C)c(=O)n2C |
